SMILES strings stand for the structures. In brackets after ≈: the same amount, converted by molar mass.

One assay relates to A. baumannii strain ATCC19606. In words: Minimum inhibitory concentration (MIC) determination, microbroth dilution (CLSI). The format is cell-based. As to conditions: Acinetobacter baumannii; A. baumannii ATCC19606; CAMHB; read after 20 hours; >=80% growth inhibition; read-out: ATCC19606 MIC. The method, boiled down: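 After 20 h at 35±2 °C, MIC taken visually and by OD 600 nm as the lowest concentration giving ≥80% growth inhibition. Bacteria (~5×10^5 CFU/ml) were tested per CLSI microbroth dilution against twofold serial compound dilutions in cation-adjusted Mueller Hinton broth.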
On to `CN1C(=O)[C@H](CCCCN)NC(=O)[C@H](CCCN)NCc2cccnc2Sc2c(Cl)cc(-c3cc[nH]c3)cc2CNC(=O)[C@@H]1Cc1c[nH]c2ccccc12` [Example 232, (11S,14S,17S)-14-(4-Amino-butyl)-11-(3-amino-propyl)-25-chloro-17-(1H-indol-3-ylmethyl)-16-methyl-23-(1H-pyrrol-3-yl)-2-thia-4,10,13,16,19-pentaaza-tricyclo[19.4.0.0*3,8*]pentacosa-1(25),3(8),4,6,21,23-hexaene-12,15,18-trione], for which the minimal inhibitory concentration (MIC) worked out at 1 µg/mL (≈ 1.3 µM). Still for that read-out and setting: the result for `Cc1[nH]c2ccccc2c1C[C@H]1C(=O)NCc2cc(C#N)cc(Cl)c2Sc2ncccc2CN[C@@H](CCCN)C(=O)N[C@@H](CCCCN)C(=O)N1C` [Example 233, (11S,14S,17S)-14-(4-Amino-butyl)-11-(3-amino-propyl)-25-chloro-16-methyl-17-(2-methyl-1H-indol-3-ylmethyl)-12,15,18-trioxo-2-thia-4,10,13,16,19-pentaaza-tricyclo[19.4.0.0*3,8*]pentacosa-1(25),3(8),4,6,21,23-hexaene-23-carbonitrile] reads 0.25 µg/mL (≈ 0.336 µM); that for `Cc1[nH]c2ccccc2c1C[C@H]1C(=O)NCc2cc(-c3ccc(S(C)(=O)=O)cc3)cc(Cl)c2Sc2ncccc2CN[C@@H](CCCN)C(=O)N[C@@H](CCCCN)C(=O)N1C` [Example 234, (11S,14S,17S)-14-(4-Amino-butyl)-11-(3-amino-propyl)-25-chloro-23-(4-methanesulfonyl-phenyl)-16-methyl-17-(2-methyl-1H-indol-3-ylmethyl)-2-thia-4,10,13,16,19-pentaaza-tricyclo[19.4.0.0*3,8*]pentacosa-1(25),3(8),4,6,21,23-hexaene-12,15,18-trione], 2 µg/mL (≈ 2.29 µM); that for `Cc1[nH]c2ccccc2c1C[C@H]1C(=O)NCc2cc(-c3ccc(S(N)(=O)=O)cc3)cc(Cl)c2Sc2ncccc2CN[C@@H](CCCN)C(=O)N[C@@H](CCCCN)C(=O)N1C` [Example 235, 4-[(11S,14S,17S)-14-(4-Amino-butyl)-11-(3-amino-propyl)-25-chloro-16-methyl-17-(2-methyl-1H-indol-3-ylmethyl)-12,15,18-trioxo-2-thia-4,10,13,16,19-pentaaza-tricyclo[19.4.0.0*3,8*]pentacosa-1(25),3(8),4,6,21,23-hexaen-23-yl]-benzenesulfonamide], 0.5 µg/mL (≈ 0.572 µM).

The next assay relates to A. baumannii strain ATCC17978. In words: 50% growth inhibitory concentration (IC50) determination, Iso-Sensitest broth. The format is cell-based. As to conditions: Acinetobacter baumannii; A. baumannii ATCC17978; Iso-Sensitest medium; OD 600 nm over 16 h; read-out: IC50 ATCC17978. As for the experimental part:
The in vitro antimicrobial activity of the compounds was alternatively determined according to the following procedure:
The assay used a 10-points Iso-Sensitest broth medium to measure quantitatively the in vitro activity of the compounds against A. baumannii ATCC 17978.
Stock compounds in DMSO were serially twofold diluted (e.g. range from 50 to 0.097 μM final concentration) in 384 wells microtiter plates and inoculated with 49 μl the bacterial suspension in Iso-Sensitest medium to have a final cell concentration of ˜5×10^(5) CFU/ml in a final volume/well of 50 ul/well. Microtiter plates were incubated at 35±2° C.
Bacterial cell growth was determined with the measurement of optical density at λ=600 nm each 20 minutes over a time course of 16 h.
Growth inhibition was calculated during the logarithmic growth of the bacterial cells with determination of the concentration inhibiting 50% (IC50) and 90% (IC90) of the growth.
Tables 3, 4 and 5 provide the 50% growth inhibitory concentrations (IC50) in micromoles per liter of the compounds of present invention obtained against the A. baumannii strain ATCC17978.
For the compound `CN1Cc2ccccc2Sc2ccccc2CNC(=O)[C@H](Cc2c[nH]c3ccccc23)NC(=O)[C@H](CCCN)NC(=O)[C@@H]1Cc1ccc(-c2ccccc2)cc1` [Example 117, (12S,15S,18S)-15-(3-Amino-propyl)-18-biphenyl-4-ylmethyl-12-(1H-indol-3-ylmethyl)-19-methyl-2-thia-10,13,16,19-tetraaza-tricyclo[19.4.0.0*3,8*]pentacosa-1(25),3,5,7,21,23-hexaene-11,14,17-trione], the IC50 amounted to 8100 nM. Turning to `NCCCC[C@@H]1NC(=O)[C@@H](CCCN)NCc2cccnc2Sc2c(ccc(-c3ccccc3)c2Cl)CNC(=O)[C@H](Cc2c[nH]c3ccccc23)NC1=O` [Example 124, (11R,14S,17S)-14-(4-Amino-butyl)-11-(3-amino-propyl)-25-chloro-17-(1H-indol-3-ylmethyl)-24-phenyl-2-thia-4,10,13,16,19-pentaaza-tricyclo[19.4.0.0*3,8*]pentacosa-1(25),3,5,7,21,23-hexaene-12,15,18-trione], the IC50 stood at 34900 nM. In the case of `NCCCC[C@@H]1NC(=O)[C@H](CCCN)NCc2cccnc2Sc2c(ccc(-c3ccccc3)c2Cl)CNC(=O)[C@H](Cc2c[nH]c3ccccc23)NC1=O` [Example 125, (11S,14S,17S)-14-(4-Amino-butyl)-11-(3-amino-propyl)-25-chloro-17-(1H-indol-3-ylmethyl)-24-phenyl-2-thia-4,10,13,16,19-pentaaza-tricyclo[19.4.0.0*3,8*]pentacosa-1(25),3,5,7,21,23-hexaene-12,15,18-trione], the IC50 turned out to be 23300 nM. For the compound `CN1C(=O)[C@H](CCCCN)NC(=O)[C@@H](CCCN)NCc2cccnc2Sc2c(ccc(-c3ccccc3)c2Cl)CNC(=O)[C@@H]1Cc1c[nH]c2ccccc12` [Example 126, (11R,14S,17S)-14-(4-Amino-butyl)-11-(3-amino-propyl)-25-chloro-17-(1H-indol-3-ylmethyl)-16-methyl-24-phenyl-2-thia-4,10,13,16,19-pentaaza-tricyclo[19.4.0.0*3,8*]pentacosa-1(25),3,5,7,21,23-hexaene-12,15,18-trione], the IC50 turned out to be 30300 nM. For `CN1C(=O)[C@H](CCCCN)NC(=O)[C@H](CCCN)NCc2cccnc2Sc2c(Cl)ccc(C(F)(F)F)c2CNC(=O)[C@@H]1Cc1ccc2ccccc2n1` [Example 132, (11S,14S,17S)-14-(4-Amino-butyl)-11-(3-amino-propyl)-25-chloro-16-methyl-17-quinolin-2-ylmethyl-22-trifluoromethyl-2-thia-4,10,13,16,19-pentaaza-tricyclo[19.4.0.0*3,8*]pentacosa-1(25),3,5,7,21,23-hexaene-12,15,18-trione], the IC50 came to 17000 nM.

As to `CN1C(=O)[C@H](CCCN)NC(=O)[C@H](CCCN)NCc2ccccc2Sc2c(Cl)cc(Cl)cc2CNC(=O)[C@@H]1Cc1c[nH]c2ccccc12` [Example 133, (12S,15S,18S)— 15,18-Bis-(3-amino-propyl)-4,6-dichloro-12-(1H-indol-3-ylmethyl)-13-methyl-2-thia-10,13,16,19-tetraaza-tricyclo[19.4.0.0*3,8*]pentacosa-1(25),3,5,7,21,23-hexaene-11,14,17-trione], the IC50 was determined as 100 nM. Regarding `CN1C(=O)[C@H](CCCCN)NC(=O)[C@H](CCCN)NCc2cccnc2Sc2c(Cl)ccc(C(F)(F)F)c2CNC(=O)[C@@H]1Cc1c[nH]c2ccc(Cl)cc12` [Example 135, (11S,14S,17S)-14-(4-Amino-butyl)-11-(3-amino-propyl)-25-chloro-17-(5-chloro-1H-indol-3-ylmethyl)-16-methyl-22-trifluoromethyl-2-thia-4,10,13,16,19-pentaaza-tricyclo[19.4.0.0*3,8*]pentacosa-1(25),3,5,7,21,23-hexaene-12,15,18-trione], the IC50 was found to be 200 nM. On the same count and under the same terms, the value for `CN1C(=O)[C@H](CCCCN)NC(=O)[C@H](CCCN)NCc2cccnc2Sc2c(Cl)ccc(C(F)(F)F)c2CNC(=O)[C@@H]1CC1CNc2ccccc21` (stereo partly drawn) [Example 136, (11S,14S,17S)-14-(4-Amino-butyl)-11-(3-amino-propyl)-25-chloro-17-(2,3-dihydro-1H-indol-3-ylmethyl)-16-methyl-22-trifluoromethyl-2-thia-4,10,13,16,19-pentaaza-tricyclo[19.4.0.0*3,8*]pentacosa-1(25),3,5,7,21,23-hexaene-12,15,18-trione] was 600 nM; that for `CN1C(=O)[C@H](CCCCN)NC(=O)[C@H](CCCN)NCc2ccccc2Sc2c(Cl)cc(-c3ccccc3)cc2CNC(=O)[C@@H]1Cc1c[nH]c2ccccc12` [Example 140, (12S,15S,18S)-15-(4-Amino-butyl)-18-(3-amino-propyl)-4-chloro-12-(1H-indol-3-ylmethyl)-13-methyl-6-phenyl-2-thia-10,13,16,19-tetraaza-tricyclo[19.4.0.0*3,8*]pentacosa-1(25),3,5,7,21,23-hexaene-11,14,17-trione] was 600 nM; that for `CN1C(=O)[C@H](CCCCN)NC(=O)[C@H](CCCN)NCc2ccccc2Sc2c(Cl)cc(-c3ccccc3Cl)cc2CNC(=O)[C@@H]1Cc1c[nH]c2ccccc12` [Example 141, (12S,15S,18S)-15-(4-Amino-butyl)-18-(3-amino-propyl)-4-chloro-6-(2-chloro-phenyl)-12-(1H-indol-3-ylmethyl)-13-methyl-2-thia-10,13,16,19-tetraaza-tricyclo[19.4.0.0*3,8*]pentacosa-1(25),3,5,7,21,23-hexaene-11,14,17-trione] was 1300 nM.

Turning to `CN1C(=O)[C@H](CCCCN)NC(=O)[C@H](CCCN)NCc2ccccc2Sc2c(Cl)cc(-c3cccnc3)cc2CNC(=O)[C@@H]1Cc1c[nH]c2ccccc12` [Example 142, (12S,15S,18S)-15-(4-Amino-butyl)-18-(3-amino-propyl)-4-chloro-12-(1H-indol-3-ylmethyl)-13-methyl-6-pyridin-3-yl-2-thia-10,13,16,19-tetraaza-tricyclo[19.4.0.0*3,8*]pentacosa-1(25),3,5,7,21,23-hexaene-11,14,17-trione], the IC50 is below 400 nM. As for `CN1C(=O)[C@H](CCCCN)NC(=O)[C@H](CCCN)NCc2ccccc2Sc2c(Cl)cc(-c3ccncc3)cc2CNC(=O)[C@@H]1Cc1c[nH]c2ccccc12` [Example 143, (12S,15S,18S)-15-(4-Amino-butyl)-18-(3-amino-propyl)-4-chloro-12-(1H-indol-3-ylmethyl)-13-methyl-6-pyridin-4-yl-2-thia-10,13,16,19-tetraaza-tricyclo[19.4.0.0*3,8*]pentacosa-1(25),3,5,7,21,23-hexaene-11,14,17-trione], the IC50 is below 400 nM.
